Assay [1] has as its target T1, PDEδ (Homo sapiens, UniProt O43924).
T1 construct: made in house; host or cells: E. coli BL21(DE3)
The assay is described as follows: Fluorescence polarisation (FP)-based binding assay. As to the method:
To evaluate the binding affinities of PDs to PDEδ, we also carried out a fluorescence polarisation (FP)-based binding assay after incubation of PDs with PDEδ. […] In the presence of 0.5 µM PD compounds, the polarisation value (mP value) increased following treatment with purified PDEδ in a dose-dependent manner until treatment with excess PDEδ induced saturation of binding. Among the tested compounds, 8 compounds were selected for further evaluation and SAR analysis. The binding curves for the selected 8 compounds are shown with their Kd values in Supplemental Figure S3.
Figure 3. Binding affinities of PDs measured by fluorescence polarisation. (A) Representative binding curve of PDs (PD3) titrated with PDEδ. The FP value was measured in PBS buffer (pH 7.2) containing 8 concentrations (0, 0.5, 1, 2, 4, 8, 16 and 32 μM) of PDEδ mixed with 0.5 μM PDs. Ex: 440 nm, Em: 526 nm; (B) Kd value and half-life of each compound; (C, D) Kinetic trace of PD3 and PD7 in the competition assay. PD3 was shown as a compound with the longest retention time (slow dissociation), whereas PD7 was shown as a compound with the shortest retention time (fast dissociation). The half-life was obtained by a competition binding assay using excess deltarasin. The optimal concentration of PDEδ for the competition assay was determined using the Kd value and PD concentration (0.5 μM) for making more than 68% of the binding complex. Ex: 430 nm, Em: 520 nm. TEXT PRINTED IN THE PICTURE: (A) PD3: Best-fit values Bmax: 261.7; Best-fit values Kd: 0.4991; Std. Error Bmax: 17.98; Std. […] Error Bmax 17.98 (last digit 8 or 6) and Std. Error Kd 0.1956 (5 and 6 not certain) / Panels C and D: k and half-life are printed without a label of their own; assigned to PD3 and PD7 from the panel legends (PDEδ+PD3+Del, PDEδ+PD7+Del)
PDEδ was diluted to make a series of two-fold dilutions with a starting concentration of 32 µM. The diluted solution was mixed with PBS buffer [137 mM NaCl, 2.7 mM KCl, 10 mM Na2HPO4, 2 mM KH2PO4 (pH 7.2)] and then the mixture was loaded on a 96 well black plate (SPL life Science, Gyeonggi-do, Republic of Korea). Compounds were transferred to the wells of assay plate and the final concentration of compounds was fixed to 0.5 µM. After the addition of the compound, the assay plates were incubated for 2 h at 4 °C. FP values were detected by SpectraMax M5 microplate reader (Molecular Devices, San Jose, CA) at the maximum absorption and emission wavelengths of PD compounds in assay buffer. Kd values were determined by previously reported method.
For orientation: Polarisation of emitted light reports the rotation of a fluorescent probe.

Assay [2] deals with T1, PDEδ. The assay is described as follows: Fluorescence measurement after incubation with recombinant PDEδ. It counts as binding. Particulars: 2 µM PD + 2 µM PDEδ, 20 mM Tris buffer pH 7.5, Ex 280 nm. As to the method: With the structural rationale for the binding to PDEδ from the molecular docking studies, we measured the fluorescence responses of the PDs after incubation with recombinant PDEδ proteins to confirm the binding of PDs to PDEδ. We envisioned that the hydrophobic environment of the prenyl binding pocket of PDEδ, as depicted in Figure 1(C), could enhance the fluorescent signal due to the solvatochromic characteristics of IQ scaffold. In addition, tryptophan residues near the binding site of PDEδ and the fluorophore of PDs could act as a fluorescence resonance energy transfer (FRET) pair. […] All recoded spectra of PDs are depicted in Supplemental Figure S1. To compare the binding abilities of PD derivatives to the target protein, same concentration (2 µM) of PD compound was treated and then fluorescence intensity was measured in Spectrofluorometer FP-6500.
The fluorescence changes were measured to determine the interaction between PD compounds and PDEδ protein. The fluorescence spectra were obtained under Tris buffer [20 mM Tris-HCl (pH 7.5), 100 mM NaCl] at 20 °C. The concentration of PDEδ was 2 µM. After the addition of 2 µM PD compound, the mixture was gently inverted 3 times and then incubated for 1 min. The emission spectra were recorded on Spectrofluorometer FP-6500 (JASCO, Tokyo, Japan) at Ex 280 nm. The band width was 3 nm for excitation and 5 nm for emission.

Assay [3] concerns the target T1, PDEδ. The assay is described as follows: Native gel electrophoresis with in-gel fluorescence (target specificity). It counts as binding. The note with it: 5 or 50 µM PD3, PDEδ-overexpressing bacterial lysate or purified PDEδ, 12% native gel. The protocol: We also conducted native gel electrophoresis to further verify the specific binding of PD3 to native PDEδ using in-gel fluorescence scanning. […] We assumed that PD3 bound within the tertiary structure would be identified on the native gel. PD3 was incubated with bacterial lysate containing the overexpressed PDEδ protein (Figure 4(C,D), lanes 1–3) or purified PDEδ (Figure 4(C,D), lanes 4–6), and then these samples were run in a native gel to avoid denaturation of the protein. The in-gel fluorescence shown in Figure 4(C) (Ex: 312 nm, Em: 585–625 nm) was compared to the same gel stained with Coomassie that visualised the protein bands (Figure 4(D)), which confirmed the formation of the PD3-target protein complex. As expected, the fluorescence band was detected at the location of PDEδ and only detected in the lane with PD3 (lanes 2, 3, 5, and 6).
PD3 (5 or 50 µM) was added to the bacterial lysate (390 µM) or purified PDEδ protein (22.9 µM) and the mixture was incubated for 2 h at 4 °C. The samples were loaded on each lane and separated by 12% native PAGE in a running buffer [25 mM Tris-HCl (pH 8.0), 500 mM NaCl, 10 mM imidazole, 10% Glycerol] with 1/4 pellet of protease inhibitor (Roche, Penzberg, Upper Bavaria, Germany). The gels were run at 70 V for 2.5 h, followed by in-gel fluorescence measurement. The same gel was stained by Coomassie brilliant blue to visualise protein bands.

The structures appear in SMILES notation. Read-outs that look alike come from different tables or passages of the source.

T1 sequence (O43924 whole entry): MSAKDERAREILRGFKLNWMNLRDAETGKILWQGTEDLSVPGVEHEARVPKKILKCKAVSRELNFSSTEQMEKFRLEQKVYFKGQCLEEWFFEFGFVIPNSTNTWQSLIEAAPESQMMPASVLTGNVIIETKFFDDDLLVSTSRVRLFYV

As for `Cc1ccc(-c2nc3ccccc3c3cc4ccccn4c23)cc1` [PD3, 6-(p-tolyl)indolizino[3,2-c]quinoline], the Kd on PDEδ [1] (0.5 µM PD titrated with PDEδ, PBS pH 7.2, mean ± SD of three independent experiments, read-out: Kd value) came out at 491 ± 12 nM; at PDEδ [1] (representative binding curve, Figure 3(A) inset, read-out: Best-fit values Kd), 499 nM. The “Fluorescence response upon incubation with PDEδ” value at PDEδ [2] is on record as “exceeded the maximum detection limit of Spectrofluorometer”. The “Binding specificity to PDEδ by in-gel fluorescence” value on PDEδ [3] is “specifically binds to PDEδ in bacterial lysates”.

The term Kd denotes the free concentration of one partner at which half of the binding sites on the other are occupied at equilibrium, for simple one-to-one binding.

The values are drawn from paper PMC9225715, “Development of PD3 and PD3-B for PDEδ inhibition to modulate KRAS activity” (Journal of Enzyme Inhibition and Medicinal Chemistry, 2022).
